Test results: ChEMBL document CHEMBL1126384, “Synthesis of reversed hydroxamic acids of indomethacin: dual inhibitors of cyclooxygenase and 5-lipoxygenase” (Bioorg Med Chem Lett, 1992)

Assays:
Cyclooxygenase = target: T1, Cyclooxygenase (Rattus norvegicus, UniProt P35355+Q63921); conditions: rbl-1
T1 sequence (P35355 whole entry): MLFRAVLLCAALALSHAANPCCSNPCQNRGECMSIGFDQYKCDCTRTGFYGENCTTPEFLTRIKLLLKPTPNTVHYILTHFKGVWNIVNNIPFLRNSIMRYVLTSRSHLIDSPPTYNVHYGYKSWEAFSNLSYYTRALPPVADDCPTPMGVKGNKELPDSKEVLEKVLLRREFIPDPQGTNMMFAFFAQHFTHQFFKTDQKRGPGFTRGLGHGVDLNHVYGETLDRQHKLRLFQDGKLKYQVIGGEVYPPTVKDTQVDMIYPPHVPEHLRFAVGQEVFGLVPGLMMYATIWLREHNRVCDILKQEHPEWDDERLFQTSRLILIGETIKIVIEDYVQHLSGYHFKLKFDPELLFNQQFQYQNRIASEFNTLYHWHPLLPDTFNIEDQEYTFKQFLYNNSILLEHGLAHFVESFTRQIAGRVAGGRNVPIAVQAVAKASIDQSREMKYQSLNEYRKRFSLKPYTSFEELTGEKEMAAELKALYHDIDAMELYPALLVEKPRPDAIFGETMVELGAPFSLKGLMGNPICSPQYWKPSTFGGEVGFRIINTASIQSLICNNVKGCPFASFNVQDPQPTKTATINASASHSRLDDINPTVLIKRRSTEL
T1 sequence (Q63921 whole entry): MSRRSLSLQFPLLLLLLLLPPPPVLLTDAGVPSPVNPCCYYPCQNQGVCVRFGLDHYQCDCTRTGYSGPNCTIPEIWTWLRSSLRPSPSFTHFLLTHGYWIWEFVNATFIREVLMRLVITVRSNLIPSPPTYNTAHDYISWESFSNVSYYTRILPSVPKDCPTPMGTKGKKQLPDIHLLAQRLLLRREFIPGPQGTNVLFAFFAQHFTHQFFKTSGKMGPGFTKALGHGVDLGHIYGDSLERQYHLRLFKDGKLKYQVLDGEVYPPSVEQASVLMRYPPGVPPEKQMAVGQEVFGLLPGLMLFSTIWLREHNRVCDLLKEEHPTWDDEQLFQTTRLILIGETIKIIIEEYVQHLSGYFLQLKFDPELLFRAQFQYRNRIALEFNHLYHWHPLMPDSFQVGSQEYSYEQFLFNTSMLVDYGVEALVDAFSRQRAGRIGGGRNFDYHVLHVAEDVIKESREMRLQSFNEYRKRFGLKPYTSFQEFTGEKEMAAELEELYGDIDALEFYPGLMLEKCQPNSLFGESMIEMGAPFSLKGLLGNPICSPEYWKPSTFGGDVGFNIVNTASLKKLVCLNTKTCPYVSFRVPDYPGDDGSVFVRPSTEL
Description: Tested for inhibition of cyclooxygenase (ARBC) in calcium-stimulated rat basophilic leukemia cells(RBL-1)

[1] = target: T2, Polyunsaturated fatty acid 5-lipoxygenase (Rattus norvegicus, UniProt P12527); test: Tested for inhibition of 5-Lipoxygenase (ARBL) in calcium-stimulated rat basophilic leukemia cells(RBL-1); format: cell-based
T2 sequence (P12527 whole entry): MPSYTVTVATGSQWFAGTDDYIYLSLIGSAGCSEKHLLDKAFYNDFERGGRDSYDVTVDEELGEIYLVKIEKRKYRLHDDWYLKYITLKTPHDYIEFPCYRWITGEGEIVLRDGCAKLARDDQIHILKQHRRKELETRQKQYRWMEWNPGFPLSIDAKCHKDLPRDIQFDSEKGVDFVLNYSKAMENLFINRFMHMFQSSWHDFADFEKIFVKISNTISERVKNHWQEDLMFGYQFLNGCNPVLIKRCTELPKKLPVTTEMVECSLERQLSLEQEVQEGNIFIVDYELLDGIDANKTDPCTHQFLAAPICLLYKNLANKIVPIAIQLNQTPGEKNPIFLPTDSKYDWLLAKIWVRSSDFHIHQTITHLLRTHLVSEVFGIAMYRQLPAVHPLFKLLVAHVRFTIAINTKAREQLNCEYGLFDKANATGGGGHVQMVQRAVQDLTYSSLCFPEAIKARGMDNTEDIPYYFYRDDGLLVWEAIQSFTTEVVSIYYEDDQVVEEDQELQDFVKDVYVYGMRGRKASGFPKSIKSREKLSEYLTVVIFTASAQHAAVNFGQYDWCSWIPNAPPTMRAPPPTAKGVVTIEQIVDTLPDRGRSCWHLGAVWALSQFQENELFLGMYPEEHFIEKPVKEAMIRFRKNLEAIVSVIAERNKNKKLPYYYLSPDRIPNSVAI

SMILES	IC50 (Cyclooxygenase)	IC50 [1]
CNC(=S)N(O)Cc1c(C)n(C(=O)c2ccc(Cl)cc2)c2ccc(OC)cc12	7.1 µM	
COc1ccc2c(c1)c(CN(O)C(N)=O)c(C)n2C(=O)c1ccc(Cl)cc1	> 20 µM	0.34 µM
COc1ccc2c(c1)c(CC(=O)O)c(C)n2C(=O)c1ccc(Cl)cc1 [INDOMETHACIN]		> 100 µM

Second part, the compound after the results:

IC50 (Cyclooxygenase)	IC50 [1]	SMILES
7 µM	0.57 µM	CNC(=S)N(O)C(C)c1c(C)n(C(=O)c2ccc(Cl)cc2)c2ccc(OC)cc12 (configuration not stated)
2.4 µM	0.83 µM	COc1ccc2c(c1)c(C(C)N(O)C(C)=O)c(C)n2C(=O)c1ccc(Cl)cc1 (configuration not stated)
0.89 µM	1.4 µM	COc1ccc2c(c1)c(C(C)N(O)C(N)=O)c(C)n2C(=O)c1ccc(Cl)cc1 (configuration not stated)
15 µM	1.4 µM	COc1ccc2c(c1)c(CN(O)C(C)=O)c(C)n2C(=O)c1ccc(Cl)cc1
